According to US20200113950A1, “Human microbiota derived N-acyl amides for the treatment of human disease” (The Rockefeller University, priority 2017, published 2020):
Entries after “also recorded” stand apart in the source; their conditions may differ.

Tests used:
GLUTag cells = test: GLP-1 release from GLUTag cells; assay type: cell-based, Murine; conditions: equimolar concentrations, 2 hours
Excerpt: (§1) GPR119 is the most extensively studied of the GPCRs activated by bacterial N-acyl amides (FIG. 4). Mechanisms that link endogenous GPR119 agonists (OEA, 2-OG) to changes in host phenotype are well defined as a result of the exploration of GPR119 as a therapeutic target for the treatment of diabetes and obesity. In fact, synthetic small molecule GPR119 agonists are in clinical trials as treatment for both diseases (Ritter et al., 2016, J Med Chem 59:3579-92; Nunez et al., 2014, PLoS One 9:e92494; Ha et al., 2014, Arch Pharm Res 37:671-8; Katz et al., 2012, Diabetes Obes Metab 14:709-16). GPR119 agonists are thought to affect diverse metabolic functions, primarily glucose homeostasis but also gastric emptying and appetite, in vivo through GPR119-dependent hormone release from enteroendocrine cells (GLP-1, GIP, PYY) and pancreatic β-cells (insulin) (Flock et al., 2011, Endorinol 152:374-83; Overton et al., 2006, Cell Metab 3:167-75; Chu et al., 2007, Endocrinol 148:2601-9; Chu et al., 2008, Endocrinol 149:2038-47; Lauffer et al., 2009, Diabetes 58:1058-66; Serrano et al., 2011, Neuropharmacol 60:593-601). Murine enteroendocrine GLUTag cells have been used as a model system for measuring the ability of potential GPR119 agonists to induce GLP-1 release. […] To provide an orthogonal measurement of GPR119 activation by N-acyl serinols, HEK293 cells were stably transfected with a GPR119 expression construct.
Oleoyl ethanolamide and 2-oleoyl glycerol were purchased from Cayman Chemical Company and resuspended in DMSO to a concentration of 10 mM. N-oleoyl serinol was isolated and purified in the same manner as N-palmitoyl serinol described above and confirmed by ^1H NMR and HRMS. N-oleoyl serinol was resuspended at 10 mM concentration in DMSO. GLUTag cells were obtained from the Mangelsdorf Lab (University of Texas Southwestern) with permission from Daniel Drucker (Mount Sinai Hospital Toronto). […] Media was then collected, centrifuged at 500×g (4° C.) for 5 minutes and cell free supernatant was analyzed for GLP-1 level using the Active GLP-1 V2 kit (Mesoscale Discovery). […]

[1] = molecular target: T1, sphingosine-1-phosphate receptor 4 (S1PR4) (Homo sapiens, UniProt O95977); test: β-arrestin cell-based GPCR assay (DiscoveRx), agonist mode, S1PR4; conditions: for agonist activity at / interaction with S1PR4: GPCR screen
T1 sequence (O95977 1-384): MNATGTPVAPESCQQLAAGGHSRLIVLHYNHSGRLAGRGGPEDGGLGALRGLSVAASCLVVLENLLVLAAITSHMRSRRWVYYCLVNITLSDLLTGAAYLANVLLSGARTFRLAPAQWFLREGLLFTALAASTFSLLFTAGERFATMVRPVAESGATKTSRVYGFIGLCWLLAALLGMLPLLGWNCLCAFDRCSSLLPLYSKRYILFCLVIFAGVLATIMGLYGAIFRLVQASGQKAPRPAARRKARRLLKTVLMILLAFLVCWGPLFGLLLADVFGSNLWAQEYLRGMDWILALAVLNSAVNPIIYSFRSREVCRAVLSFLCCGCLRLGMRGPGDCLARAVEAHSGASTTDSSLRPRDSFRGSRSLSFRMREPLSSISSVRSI
Description: The major N-acyl amide analog isolated from each family was assayed for agonist and antagonist activity against a panel of 240 human GPCRs (FIG. 3 and FIG. 8).
(§2) Using β-arrestin cell-based assays at 10 uM ligand concentration, agonist and antagonist activity was assessed by DiscoveRx against 168 GPCRs with known ligands as well as 72 orphan GPCRs. […] Synthetic N-acyl amides were assayed in the same fashion.

S1PR1 = S1PR1 (Homo sapiens, UniProt P21453); test: β-arrestin GPCR screen, agonist mode, S1PR1; assay type: cell-based
Description: as §2

S1PR2 = S1PR2 (Homo sapiens, UniProt O95136); test: β-arrestin GPCR screen, agonist mode, S1PR2; assay type: cell-based
Description: as §2

S1PR3 = S1PR3 (Homo sapiens, UniProt Q99500); test: β-arrestin GPCR screen, agonist mode, S1PR3; assay type: cell-based
Description: as §2

G2A = molecular target: T2, G2A (Homo sapiens, UniProt Q9UNW8); test: β-arrestin cell-based GPCR assay (DiscoveRx), agonist mode, orphan receptor G2A; conditions: for activation of G2A: GPCR screen
T2 sequence (Q9UNW8 1-380): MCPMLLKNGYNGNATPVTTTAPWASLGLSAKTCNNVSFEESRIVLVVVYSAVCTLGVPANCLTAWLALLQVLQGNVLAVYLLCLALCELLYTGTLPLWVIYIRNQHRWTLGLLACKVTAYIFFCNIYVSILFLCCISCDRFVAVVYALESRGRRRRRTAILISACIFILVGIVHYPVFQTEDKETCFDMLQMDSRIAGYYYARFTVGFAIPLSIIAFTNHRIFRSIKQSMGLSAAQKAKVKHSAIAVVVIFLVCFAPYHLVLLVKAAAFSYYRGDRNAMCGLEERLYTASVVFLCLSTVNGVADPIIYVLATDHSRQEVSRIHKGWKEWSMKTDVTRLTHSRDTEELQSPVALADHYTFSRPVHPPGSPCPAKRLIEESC
Description: (§3) The major N-acyl amide analog isolated from each family was assayed for agonist and antagonist activity against a panel of 240 human GPCRs (FIG. 3 and FIG. 8). […] The maximal activation of GPR119 and S1PR4 by the bacterial N-acyl amides was similar to the endogenous ligand (GPR119 100%, S1PR4 80%). Interactions between the bacterial N-acyl amides and GPCRs were also specific (FIG. 3A and FIG. 3B).
(§4) For each of the 6 N-acyl amide families (1-6) the analogue produced at the highest level in the heterologous expression experiments was assayed for GPCR activity. In the case of family 4 the major lysine analogue (N-3-hydroxyoleoyl lysine) was screened. Using β-arrestin cell-based assays at 10 uM ligand concentration, agonist and antagonist activity was assessed by DiscoveRx against 168 GPCRs with known ligands as well as 72 orphan GPCRs. […] Synthetic N-acyl amides were assayed in the same fashion.

PTGIR = PTGIR (Homo sapiens, UniProt P43119); test: β-arrestin cell-based GPCR assay (DiscoveRx), antagonist mode, PTGIR
Description: as §3, §4

PTGER4 = PTGER4 (Homo sapiens, UniProt P35408); test: β-arrestin cell-based GPCR assay (DiscoveRx), antagonist mode, PTGER4
Description: as §3, §4

GPR119 [2] = molecular target: T3, GPR119 (Homo sapiens, UniProt Q8TDV5); test: β-arrestin cell-based GPCR assay (DiscoveRx), agonist mode, GPR119; conditions: for interaction with GPR119: GPCR screen and dose response, FIG. 8
T3 sequence (Q8TDV5 1-335): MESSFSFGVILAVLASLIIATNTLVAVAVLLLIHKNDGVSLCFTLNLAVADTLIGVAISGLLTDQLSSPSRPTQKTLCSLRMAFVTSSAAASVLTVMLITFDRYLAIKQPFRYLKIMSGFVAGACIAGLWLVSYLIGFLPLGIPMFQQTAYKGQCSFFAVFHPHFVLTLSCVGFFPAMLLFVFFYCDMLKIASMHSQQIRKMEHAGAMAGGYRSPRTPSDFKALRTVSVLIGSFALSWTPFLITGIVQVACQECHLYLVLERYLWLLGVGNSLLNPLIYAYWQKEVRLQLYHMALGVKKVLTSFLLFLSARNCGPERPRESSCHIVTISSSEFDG
Description: as §3, §4

GPR119 [3] = molecular target: T3, GPR119; test: cAMP secondary assay in ACTOne HEK293 cells transfected with GPR119; assay type: cell-based; design: expressed in transfected cells; host or cells: ACTOne HEK293 cells; conditions: for cellular cAMP concentration: HEK293 cells stably transfected with GPR119 vs native cells
Description: FIG. 10 depicts a secondary assay of GPR119. ACTOne HEK293 cells (control) and ACTOne HEK293 cells transfected with GPR119 were exposed to equimolar concentrations of the endogenous GPR119 ligand oleoylethanolamide or the bacterial ligand N-oleoyl serinol. Relative fluorescent intensity was recorded for each ligand concentration compared to background signal. All data points were performed in quadruplicate and error bars represent SD around the mean. […] The DCEA [5-(N-Ethylcarboxamido)adenosine] control is presented to confirm cAMP response of the parental cell line.
as §1

[4] = mice; cited from earlier work

S1PR1, sequence (P21453 whole entry): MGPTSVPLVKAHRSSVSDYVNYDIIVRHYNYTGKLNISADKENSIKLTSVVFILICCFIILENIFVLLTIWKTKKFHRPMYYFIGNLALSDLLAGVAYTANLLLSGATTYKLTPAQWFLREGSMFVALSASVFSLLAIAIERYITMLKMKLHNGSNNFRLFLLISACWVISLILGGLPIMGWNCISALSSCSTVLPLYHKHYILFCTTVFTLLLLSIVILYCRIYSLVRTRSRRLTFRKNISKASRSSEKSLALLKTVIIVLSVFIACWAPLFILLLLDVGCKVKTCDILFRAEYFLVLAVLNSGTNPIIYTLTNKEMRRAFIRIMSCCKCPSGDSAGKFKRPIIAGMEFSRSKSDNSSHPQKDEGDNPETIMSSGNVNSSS
PTGER4, sequence (P35408 whole entry): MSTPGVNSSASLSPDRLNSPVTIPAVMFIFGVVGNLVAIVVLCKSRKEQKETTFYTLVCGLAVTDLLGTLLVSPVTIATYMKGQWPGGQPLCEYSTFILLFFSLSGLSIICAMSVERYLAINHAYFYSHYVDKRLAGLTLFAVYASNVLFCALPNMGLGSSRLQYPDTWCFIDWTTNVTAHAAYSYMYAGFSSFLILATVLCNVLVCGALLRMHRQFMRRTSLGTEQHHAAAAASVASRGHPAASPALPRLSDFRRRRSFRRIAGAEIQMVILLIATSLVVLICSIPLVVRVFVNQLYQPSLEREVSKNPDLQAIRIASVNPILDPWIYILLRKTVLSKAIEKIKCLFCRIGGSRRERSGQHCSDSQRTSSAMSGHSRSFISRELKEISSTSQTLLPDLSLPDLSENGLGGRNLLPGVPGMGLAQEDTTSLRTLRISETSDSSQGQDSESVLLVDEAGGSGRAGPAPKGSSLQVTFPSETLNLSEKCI
S1PR3, sequence (Q99500 whole entry): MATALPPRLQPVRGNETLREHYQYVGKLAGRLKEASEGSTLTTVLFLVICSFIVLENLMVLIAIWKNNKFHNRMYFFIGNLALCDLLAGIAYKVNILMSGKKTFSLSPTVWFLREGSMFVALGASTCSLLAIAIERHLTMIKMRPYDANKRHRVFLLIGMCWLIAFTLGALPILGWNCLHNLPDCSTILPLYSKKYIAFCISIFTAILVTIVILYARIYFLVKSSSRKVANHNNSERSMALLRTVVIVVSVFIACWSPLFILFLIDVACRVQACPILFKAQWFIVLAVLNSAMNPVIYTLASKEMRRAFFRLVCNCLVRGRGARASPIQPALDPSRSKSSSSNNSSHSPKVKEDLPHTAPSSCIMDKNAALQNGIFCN
PTGIR, sequence (P43119 whole entry): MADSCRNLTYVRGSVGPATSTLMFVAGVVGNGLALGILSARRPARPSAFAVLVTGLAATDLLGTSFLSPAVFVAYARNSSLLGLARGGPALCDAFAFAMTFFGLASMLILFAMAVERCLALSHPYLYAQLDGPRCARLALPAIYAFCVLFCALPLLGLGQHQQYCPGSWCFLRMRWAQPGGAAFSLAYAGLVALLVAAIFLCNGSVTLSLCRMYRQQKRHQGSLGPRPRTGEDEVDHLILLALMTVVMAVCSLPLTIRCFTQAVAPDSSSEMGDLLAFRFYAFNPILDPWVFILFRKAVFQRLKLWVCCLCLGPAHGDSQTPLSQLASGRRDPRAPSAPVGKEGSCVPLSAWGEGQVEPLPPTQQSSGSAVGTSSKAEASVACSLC
S1PR2, sequence (O95136 whole entry): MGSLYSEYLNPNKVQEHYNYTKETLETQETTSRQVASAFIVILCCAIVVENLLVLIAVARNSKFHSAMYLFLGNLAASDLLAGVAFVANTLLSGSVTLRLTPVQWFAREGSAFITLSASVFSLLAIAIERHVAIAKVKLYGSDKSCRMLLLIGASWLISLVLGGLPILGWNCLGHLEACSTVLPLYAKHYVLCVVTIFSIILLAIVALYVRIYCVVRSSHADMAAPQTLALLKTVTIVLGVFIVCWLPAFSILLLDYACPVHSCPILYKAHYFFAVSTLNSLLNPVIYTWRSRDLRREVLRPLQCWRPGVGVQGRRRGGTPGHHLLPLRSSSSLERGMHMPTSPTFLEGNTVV

## CCCCCCCC/C=C\CCCCCCCC(=O)OC(CO)CO [Compound 2-OG, 2-oleoyl glycerol]
GLUTag cells
  GLP-1 secretion: induced GLP-1 secretion to the same magnitude

## CCCCCCCCCCCCC/C=C/[C@@H](O)[C@@H](N)COP(=O)(O)O [Compound S1P, sphingosine-1-phosphate, reference compound]
[1]
  agonist activity at / interaction with S1PR4: activates
[1]; β-arrestin assay, dose response in duplicate, read-out: EC50, activation of S1PR4
  EC50: 0.09 µM
S1PR1
  activation of S1PR1: activates
S1PR2
  activation of S1PR2: activates
S1PR3
  activation of S1PR3: activates

## CCCCCCCCCCCCCC(O)CC(=O)NCC(=O)O (stereo not shown) [N-3-hydroxypalmitoyl glycine]
G2A
  activation of G2A: activate G2A

## CCCCCCCCCCCCCC(O)CC(=O)N[C@@H](CCCCN)C(=O)O (stereo partly shown) [N-3-hydroxypalmitoyl lysine]
[1]
  agonist activity at / interaction with S1PR4: specific agonist of S1PR4; also recorded: interacts with S1PR4

## CCCCCCCCCCCCCC(O)CC(=O)NC(CCCN)C(=O)O (stereo not shown) [N-3-hydroxypalmitoyl ornithine, N-3-OH-palmitoyl ornithine]
[1]
  agonist activity at / interaction with S1PR4: specific agonist of S1PR4; also recorded: interacts with S1PR4
[1]; relative to endogenous ligand, read-out: maximal activation of S1PR4 compared with the endogenous ligand
  Emax: 80%
S1PR1
  activation of S1PR1: did not activate
S1PR2
  activation of S1PR2: did not activate
S1PR3
  activation of S1PR3: did not activate

## CCCCCCCCCCCC(O)CC(=O)OC(CCCCCCC)CC(=O)N[C@@H](CCC(N)=O)C(=O)O (stereo partly shown) [N-acyloxyacyl glutamine, 3-[(3-OH-myristoyl)oxy]decanoyl glutamine]
PTGIR; antagonist screen
  antagonism of PTGIR: specifically antagonized
PTGIR; in the presence of endogenous ligand, read-out: IC50, antagonist activity against PTGIR
  IC50: 15 µM
PTGER4; antagonist screen
  antagonism of PTGER4: antagonized
PTGER4; in the presence of endogenous ligand, read-out: IC50, antagonist activity against PTGER4
  IC50: 43 µM

## CCCCCCCCCCCCCC(=O)N[C@@H](C)C(=O)O [N-myristoyl alanine]
G2A; β-arrestin assay, dose response, read-out: EC50, activation of G2A
  EC50: 3 µM

## CCCCCCCC/C=C\CCCCCCCC(=O)NC(CO)CO [N-oleoyl serinol]
GPR119 [2]
  interaction with GPR119: interacts with GPR119
GPR119 [2]; β-arrestin assay, FIG. 5A
  maximum GPR119 activation compared with OEA: ~2 fold
GLUTag cells
  GLP-1 secretion: induced GLP-1 secretion to the same magnitude
GPR119 [3]
  cellular cAMP concentration: increased cellular cAMP concentrations in a GPR119 dependent fashion

## CCCCCCCCCCCCCCCC(=O)N[C@@H](C)C(=O)O [N-palmitoyl alanine]
G2A
  activation of G2A: activate G2A

## CCCCCCCCCCCCCCCC(=O)NCC(=O)O [N-palmitoyl glycine]
G2A
  activation of G2A: activates G2A

## CCCCCCCCCCCCCCCC(=O)NC(CO)CO [N-palmitoyl serinol]
GPR119 [2]
  interaction with GPR119: interacts with GPR119
GPR119 [2]; relative to endogenous ligand, read-out: maximal activation of GPR119 compared with the endogenous ligand
  Emax: 100%

## CCCCCCCC/C=C\CCCCCCCC(=O)NCCO [OEA, oleoylethanolamide]
GPR119 [2]; β-arrestin assay, dose response in duplicate, read-out: EC50, activation of GPR119
  EC50: 7 µM
GLUTag cells
  GLP-1 secretion: induced GLP-1 secretion to the same magnitude
[4]
  blood glucose in OGTT after intravenous delivery: fails to lower blood glucose
GPR119 [3]; HEK293 cells expressing GPR119, quadruplicate, read-out: EC50, cAMP response
  EC50: 5.1 µM
GPR119 [3]
  cellular cAMP concentration: increased cellular cAMP concentrations in a GPR119 dependent fashion
